Tests used:
Format in all cases: cell-based
SK-Br-3 = assay: CellTiter-Glo luminescent cell viability (proliferation) assay, SK-Br-3; settings: Sk-Br-3 (human breast cancer) proliferation, 48 hours incubation, 10% FCS
Description: (§1) To practically assess the impact of the thiazole-piperidine derivatives, e.g. derivatives of piperidinyl-thiazole carboxylic acid and/or piperidinyl thiazole carboxamide, in the treatment and/or prevention of diseases according to the invention, the inhibition of cell proliferation is determined by using a luminescent cell viability assay (CellTiter-Glo®; Promega, Madison, USA). The assay is based on the relation that the ATP content is directly proportional to the number of cells present in the culture. The CellTiter-Glo® assay is performed to measure the proliferation rate of human hepatoma (HuH7, PLC/PRF/5, Hep3B, SK-Hep1), human hepatoblastoma (HepG2), human colon carcinoma (CX-2), human breast cancer (SK-Br-3), human ovarian carcinoma (HeLa) and human pancreatic carcinoma (DAN-G) cell lines. […] In particular, the compound according to formula (1) wherein R^1 is 4-isopropoxycarbonylphenyl, R^2 is 3-indolylmethyl, R^3 is hydrogen, R^4 is hydrogen, n is zero, A is a single bond, B is carbonyl, and wherein the residue R^1NR^3CO is connected to the carbon atom bound to nitrogen of the thiazole ring (compound no. XI in Table 1) inhibits proliferation of the human cell lines HepG2 and Hep3B with 10.8 and 3.5 µM, respectively.
(§2) To determine the inhibition of cell proliferation a luminescent cell viability assay (CellTiter-Glo®; Promega, Madison, USA) is implemented. The assay is based on the relation that the ATP content is directly proportional to the number of cells present in the culture (Technical Bulletin No. 228 "CellTiter-Glo® Luminescent Cell viability Assay", Revised 2/04. Promeg, Madison, USA). The CellTiter-Glo® assay is performed to measure the proliferation rate of human hepatoma (HuH7, PLC/PRF/5, Hep3B, SK-Hep1), human hepatoblastoma (HepG2), human colon carcinoma (CX-2), human breast cancer (SK-Br-3), human ovarian carcinoma (HeLa) and human pancreatic carcinoma (DAN-G) cell lines. 3000 viable cells (viability ≥ 90%) are seeded in opaque-walled 96-well plates and incubated for 24 hours in DMEM, supplemented with 2 mM glutamin. Cell proliferation is stimulated by addition of FCS to a final concentration of 10% (v/v). Simultaneously the compounds (see Table 1 and 2) are added in a concentration range of 0 to 20 µM. Triplicates are measured for each concentration. Cells and compounds (see Table 1 and 2) are incubated for a period of 48 hours in a volume of 140 µl cell culture medium (10% (v/v) FCS, 2 mM Glutamin, DMEM). The compounds according to the invention are dissolved in 60% to 100% (v/v) DMSO at a concentration of 2 mM. The final DMSO concentration under assay conditions never exceeds 1% (v/v). Throughout the assay cells are kept in a humidified incubator (95% rH) at 37°C and 5% CO2.
(§3) The final cell number is determined after 48 hour of incubation. Therefore 140 µl CellTiter-Glo®Reagent is added in each well. The contents are mixed on an orbital shaker for 2 minutes at room temperature. After subsequent incubation for additional 10 minutes at room temperature the luminescence signal is recorded within 30 min. EC50 values are calculated using the four-parametric Hill equation (Sigma Plot). Control values are: • 1) 10% (v/v) FCS, 2 mM glutamin, DMEM -> maximum cell number • 2) 2 mM glutamin, DMEM -> initial cell number

DAN-G = assay: CellTiter-Glo luminescent cell viability (proliferation) assay, DAN-G; settings: DAN-G (human pancreatic carcinoma) proliferation, 48 hours incubation, 10% FCS
Description: as §1, §2, §3

HuH7 = assay: CellTiter-Glo luminescent cell viability (proliferation) assay, HuH7; settings: inhibition of HuH7 (human hepatoma) proliferation, 48 hours incubation, 10% FCS
Description: as §1, §2, §3

CX-2 = assay: CellTiter-Glo luminescent cell viability (proliferation) assay, CX-2; settings: CX-2 (human colon carcinoma) proliferation, 48 hours incubation, 10% FCS
Description: as §1, §2, §3

HeLa = assay: CellTiter-Glo luminescent cell viability (proliferation) assay, HeLa; settings: Hela (human ovarian carcinoma [sic]) proliferation, 48 hours incubation, 10% FCS
Description: as §1, §2, §3

Row | Compound | EC50 (SK-Br-3) [µM] | EC50 (HuH7; Homo sapiens, Huh-7, 48 h) [µM] | EC50 (HeLa) [µM] | EC50 (HuH7; Huh-7) [µM] | EC50 (DAN-G) [µM] | EC50 (CX-2) [µM]
1 | O=C(Nc1ccc(F)c([N+](=O)[O-])c1)c1csc(C2CCN(C(=O)Cc3c[nH]c4ccccc34)CC2)n1 [II] | 10.4 | – | 12.1 | 3.42 | 3.16 | > 20
2 | O=C(Nc1cccc(-c2cnco2)c1)c1csc(C2CCN(C(=O)Cc3c[nH]c4ccccc34)CC2)n1 [IX] | – | – | – | 12.1 | – | –
3 | O=C(Nc1cc(-c2ccccc2)[nH]n1)c1csc(C2CCN(C(=O)Cc3c[nH]c4ccccc34)CC2)n1 [I] | – | – | – | 5.35 | – | –
4 | O=C(Nc1ccc2c(c1)OCCO2)c1csc(C2CCN(C(=O)NC3C=C(c4ccccc4)N=N3)CC2)n1 (stereo not drawn) [LII] | – | 19.5 | – | – | – | –
5 | Cn1nc(-c2ccccc2)cc1NC(=O)c1csc(C2CCN(C(=O)C3CCCCC3)CC2)n1 [LIV] | – | 5.5 | – | – | – | –
6 | O=C(Nc1ccc2c(c1)C(=O)OC2)c1csc(C2CCN(C(=O)CC3C=Nc4ccccc43)CC2)n1 (stereo not drawn) [LIX] | – | 7.13 | – | – | – | –
7 | O=C(CC1C=Nc2ccccc21)N1CCC(c2nc(C(=O)N3CCN(c4ccc(Cl)c(Cl)c4)CC3)cs2)CC1 (stereo not drawn) [LI] | – | 4.9 | – | – | – | –
8 | C#CC1(NC(=O)c2csc(C3CCN(C(=O)CC4C=Nc5ccccc54)CC3)n2)CCCCC1 (stereo not drawn) [LVII] | – | 5.1 | – | – | – | –
9 | C#CCOC(=O)N1CCC(c2nc(C(=O)Nc3[nH]nc(C)c3-c3ccccc3)cs2)CC1 [L] | – | 5.4 | – | – | – | –
10 | Cn1nc(-c2ccccc2)cc1NC(=O)c1csc(C2CCN(C(=O)Cc3c[nH]c4ccccc34)CC2)n1 [VII] | 10.8 | – | 12.5 | 3.38 | 7.1 | > 20
11 | COc1ccc(NC(=O)c2csc(C3CCN(C(=O)NC4C=C(c5ccccc5)N=N4)CC3)n2)cn1 (stereo not drawn) [XIII] | 12.3 | 5.3 | 10.1 | – | 8.9 | > 20
12 | CCOc1ccccc1N1CCN(C(=O)c2csc(C3CCN(C(=O)CC4C=Nc5ccccc54)CC3)n2)CC1 (stereo not drawn) [XII] | – | 13.4 | – | – | – | –
13 | Cc1csc(NC(=O)c2csc(C3CCN(C(=O)CC4C=Nc5ccccc54)CC3)n2)c1C(N)=O (stereo not drawn) [XIV] | – | 12.9 | – | – | – | –
14 | CS(=O)(=O)c1ccc(CNC(=O)c2csc(C3CCN(C(=O)CC4C=Nc5ccccc54)CC3)n2)cc1 (stereo not drawn) [XIX] | – | 8.5 | – | – | – | –

Further lines, with some results ahead:

Row | EC50 (SK-Br-3) [µM] | EC50 (HuH7; Homo sapiens, Huh-7, 48 h) [µM] | EC50 (HeLa) [µM] | EC50 (HuH7; Huh-7) [µM] | Compound | EC50 (DAN-G) [µM] | EC50 (CX-2) [µM]
15 | 7.07 | 1.39 | 3.95 | – | O=C(Nc1ccc2ncccc2c1)c1csc(C2CCN(C(=O)CC3C=Nc4ccccc43)CC2)n1 (stereo not drawn) [III] | 1.99 | 9.3
16 | > 20 | 3.76 | 10.3 | – | COc1ccc(CNC(=O)c2csc(C3CCN(C(=O)CC4C=Nc5ccccc54)CC3)n2)cc1OC (stereo not drawn) [IV] | 7.52 | > 20
17 | 19.5 | 1.63 | 23.6 | – | O=C(CC1C=Nc2ccccc21)N1CCC(c2nc(C(=O)N3CCN(c4ncccn4)CC3)cs2)CC1 (stereo not drawn) [LIII] | 18.2 | > 20
18 | – | 4.58 | – | – | CCOc1cccc(C(=O)NNC(=O)c2csc(C3CCN(C(=O)CC4C=Nc5ccccc54)CC3)n2)c1 (stereo not drawn) [LVIII] | – | –
19 | > 20 | 3.6 | 10.5 | – | COc1ccc(C(=O)N2CCC(c3nc(C(=O)Nc4cc(-c5ccco5)n[nH]4)cs3)CC2)c(OC)c1OC [LVI] | 16.9 | > 20
20 | – | 4.04 | – | – | Cc1ccc(C(=O)NNC(=O)c2csc(C3CCN(C(=O)CC4C=Nc5ccccc54)CC3)n2)s1 (stereo not drawn) [LV] | – | –
21 | 10.4 | 4.81 | 13.5 | – | CC(C)(Cc1ccc(F)cc1)NC(=O)c1csc(C2CCN(C(=O)CC3C=Nc4ccccc43)CC2)n1 (stereo not drawn) [VI] | 11.2 | 19.2
22 | 10.8 | 4.68 | 8.79 | – | Cc1ccc2cc(NC(=O)c3csc(C4CCN(C(=O)CC5C=Nc6ccccc65)CC4)n3)ccc2n1 (stereo not drawn) [V] | 6.9 | > 20
23 | – | 4.74 | – | – | O=C(CC1C=Nc2ccccc21)N1CCC(c2nc(C(=O)N3CCN(c4c(Cl)cncc4Cl)CC3)cs2)CC1 (stereo not drawn) [XLIII] | – | –
24 | – | 2.2 | – | – | Cc1cnc(NC(=O)c2csc(C3CCN(C(=S)Nc4ccc(N(C)C)cc4)CC3)n2)s1 [XLII] | – | –

Reference: patent publication EP1832586A1, “Thiazole-piperidine derivatives in treatment of diseases of liver and the pancreas” (Oridis Biomed Forschungs- und Entwicklungs GmbH, priority 2006, dated 2007)
